Assay results: US6518272B2, “Cycloalkyl-substituted aryl-piperazines, piperidines and tetrahydropyridines as serotonergic agents” (Wyeth, priority 1998, dated 2003)
pIC50: −log10 of the molar value. Counter-ions that a name gives are not always drawn.

Target: T1, human 5-HT1A receptor (Homo sapiens, UniProt P08908)
T1 construct: expressed in transfected cells; host or cells: CHO cells (stably transfected)
T1 sequence (P08908 1-422): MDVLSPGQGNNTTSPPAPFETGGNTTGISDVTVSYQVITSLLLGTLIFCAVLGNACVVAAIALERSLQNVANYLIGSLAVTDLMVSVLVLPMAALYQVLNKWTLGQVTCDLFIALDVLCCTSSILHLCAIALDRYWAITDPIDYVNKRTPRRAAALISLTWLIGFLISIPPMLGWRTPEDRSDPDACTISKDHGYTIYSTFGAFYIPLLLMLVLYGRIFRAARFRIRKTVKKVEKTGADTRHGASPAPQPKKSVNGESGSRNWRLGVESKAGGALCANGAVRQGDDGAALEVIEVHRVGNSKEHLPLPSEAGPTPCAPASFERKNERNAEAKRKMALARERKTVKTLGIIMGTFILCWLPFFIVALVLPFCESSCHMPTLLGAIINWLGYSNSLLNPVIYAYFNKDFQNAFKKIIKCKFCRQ
Assay: Displacement of [3H] 8-OHDPAT from the 5-HT1A receptor in transfected CHO cells
Format: binding
Details: not given
Source text: Affinity for the serotonin 5-HT1A receptor was established by assaying the test compound's ability to displace [^3H] 8-OHDPAT from its binding site on the receptor complex in CHO cells stably transfected with the human 5-HT1A receptor following the procedure described by J. Dunlop, Y. Zhang, D. Smith and L. Schechter (Eur. J. Pharmacol., submitted; variation of a procedure described by J. Zgombick et al., Naunyn-Schmiedeberg's Arch. Pharmacol., 354, 226-236 (1996)).

Work on `COc1ccccc1C1=CCN(C[C@@H](CC2CCCCC2)NC(=O)C2(C)CCCCC2)CC1` [Example 21, 1-Methyl-cyclohexanecarboxylic Acid {(1R)-1-Cyclohexylmethyl-2-[4-(2-methoxyphenyl)-3,6-dihydro-2H-pyridin-1-yl]-ethyl}-amide] yielded a pIC50 of 8.56.

Same assay, conditions: displacement of [3H] 8-OHDPAT; CHO cells stably transfected with the human 5-HT1A receptor; read-out: 5-HT1A Affinity (IC50)

Point of comparison: `COc1ccccc1C1CCN(C[C@@H](CC2CCCCC2)N(C)C(=O)C(C)(C)C)CC1` [Example 20, N-{(1R)-1-Cyclohexylmethyl-2-[4-(2-methoxyphenyl)-piperidin-1-yl]-ethyl}-2,2,N-trimethyl-propionamide], pIC50 8.30. Against it:
- O=C(N[C@H](CC1CCCCC1)CN1CCN(c2nccc3ccccc23)CC1)C1CCCCC1 [Example 14, Cyclohexanecarboxylic Acid {(1R)-1-Cyclohexylmethyl-2-[4-(isoquinolin-1-yl)-piperazin-1-yl]-ethyl}-amide] — 0.47 log units higher, 8.77
- COc1ccccc1N1CCN(C[C@@H](CC2CCCCC2)N(C)C(=O)C2(C)CCCCC2)CC1 [Example 4, 1-Methyl-cyclohexanecarboxylic Acid {(1R)-1-Cyclohexylmethyl-2-[4-(2-methoxyphenyl)-piperazin-1-yl]-ethyl}-methyl-amide] — 0.25 log units higher, 8.55
- CN(C(=O)C1(C)CCCCC1)[C@H](CC1CCCCC1)CN1CCN(c2cccc3[nH]ccc23)CC1 [Example 8] — 0.81 log units lower, 7.49

Target: T1, human 5-HT1A receptor
Assay: Antagonist activity: antagonism of 8-OHDPAT inhibition of forskolin-stimulated cAMP accumulation in transfected CHO cells
Format: cell-based
Details: CHO cells with human 5-HT1A receptor
Source text: Methods, 40, 47-55 (1998); variation of a procedure described by J. Zgombick et al., Naunyn-Schmiedeberg's Arch. Pharmacol., 354, 226-236 (1996)].

Point of comparison: `COc1ccccc1N1CCN(C[C@@H](CC2CCCCC2)N(C)C(=O)C2(C)CCCCC2)CC1` [Example 4, 1-Methyl-cyclohexanecarboxylic Acid {(1R)-1-Cyclohexylmethyl-2-[4-(2-methoxyphenyl)-piperazin-1-yl]-ethyl}-methyl-amide], pIC50 7.99. Against it:
- COc1ccccc1C1=CCN(C[C@@H](CC2CCCCC2)NC(=O)C2(C)CCCCC2)CC1 [Example 21, 1-Methyl-cyclohexanecarboxylic Acid {(1R)-1-Cyclohexylmethyl-2-[4-(2-methoxyphenyl)-3,6-dihydro-2H-pyridin-1-yl]-ethyl}-amide] — 0.65 log units lower, 7.34

System: not given
Assay: not given
Details: not given

First: COc1ccccc1C1CCN(C[C@@H](CC2CCCCC2)N(C)C(=O)C(C)(C)C)CC1 (as salt: hydrochloride) (hydrate or solvate) [Example 20, N-{(1R)-1-Cyclohexylmethyl-2-[4-(2-methoxyphenyl)-piperidin-1-yl]-ethyl}-2,2,N-trimethyl-propionamide]
Second: COc1ccccc1C1CCN(C[C@@H](CC2CCCCC2)NC(=O)C(C)(C)C)CC1 (as salt: hydrochloride) (hydrate or solvate) [Example 19, N-{(1R)-1-Cyclohexylmethyl-2-[4-(2-methoxyphenyl)-piperidin-1-yl]-ethyl}-2,2-dimethyl-propionamide]
The melting point of the first is higher: 233 to 236 °C for the first, 97 to 99 °C for the second.

First: COc1ccccc1C1CCN(C[C@@H](CC2CCCCC2)NC(=O)C2CCCCC2)CC1 (as salt: hydrochloride) (hydrate or solvate) [Example 15, Cyclohexanecarboxylic Acid {(1R)-1-Cyclohexylmethyl-2-[4-(2-methoxyphenyl)-piperidin-1-yl]-ethyl}-amide]
Second: COc1ccccc1C1CCN(C[C@@H](CC2CCCCC2)N(C)C(=O)C2CCCCC2)CC1 (as salt: hydrochloride) (hydrate or solvate) [Example 17, Cyclohexanecarboxylic Acid {(1R)-1-Cyclohexylmethyl-2-[4-(2-methoxyphenyl)-piperidin-1-yl]-ethyl}-methyl-amide]
The melting point of the first is lower: 100 to 103 °C for the first, 135 to 137 °C for the second.

First: CN(C(=O)C1(C)CCCCC1)[C@H](CC1CCCCC1)CN1CCN(c2cccc3c2OCCO3)CC1 (as salt: hydrochloride) [Example 6, 1-Methyl-cyclohexanecarboxylic Acid {(1R)-1-Cyclohexylmethyl-2-[4-(2,3-dihydro-benzo[1,4]dioxin-5-yl)-piperazin-1-yl]-ethyl}-methyl-amide]
Second: CN(C(=O)C1CCCCC1)[C@H](CC1CCCCC1)CN1CCN(c2cccc3c2OCCO3)CC1 (as salt: hydrochloride) (hydrate or solvate) [Example 5]
The melting point of the first is higher: 219 to 220 °C for the first, 147 to 148 °C for the second.

Compared with `COc1ccccc1N1CCN(C[C@@H](CC2CCCCC2)NC(=O)C2(C)CCCCC2)CC1` (as salt: hydrochloride) (hydrate or solvate) [Example 2, 1-Methyl-cyclohexanecarboxylic Acid of {(1R)-1-Cyclohexylmethyl-2-[4-(2-methoxyphenyl)-piperazin-1-yl]-ethyl}-amide], `COc1ccccc1N1CCN(C[C@@H](CC2CCCCC2)N(C)C(=O)C2(C)CCCCC2)CC1` (as salt: hydrochloride) [Example 4, 1-Methyl-cyclohexanecarboxylic Acid {(1R)-1-Cyclohexylmethyl-2-[4-(2-methoxyphenyl)-piperazin-1-yl]-ethyl}-methyl-amide] is higher in melting point: 119 to 121 °C for the first, 208 to 210 °C for the second.

Compared with `O=C(N[C@H](CC1CCCCC1)CN1CCN(c2nccc3ccccc23)CC1)C1CCCCC1` (as salt: hydrochloride) [Example 14, Cyclohexanecarboxylic Acid {(1R)-1-Cyclohexylmethyl-2-[4-(isoquinolin-1-yl)-piperazin-1-yl]-ethyl}-amide], `O=C(N[C@H](CC1CCCCC1)CN1CCN(c2nc3ccccc3s2)CC1)C1CCCCC1` (as salt: hydrochloride) [Example 13, Cyclohexanecarboxylic Acid {(1R)-1-Cyclohexylmethyl-2-[4-(benzothiazol-2-yl)-piperazin-1-yl]-ethyl}-amide] is higher in melting point: 155 to 159 °C for the first, 229 to 232 °C for the second.

Compared with `O=C(N[C@H](CC1CCCCC1)CN1CCN(c2ncccn2)CC1)C1CCC1` (as salt: hydrochloride) [Example 11, Cyclobutane Carboxylic Acid {(1R)-1-Cyclohexylmethyl-2-[4-(pyrimidin-2-yl)-piperazin-1-yl]-ethyl}-amide], `O=C(N[C@H](CC1CCCCC1)CN1CCN(c2ncccn2)CC1)C1CCCCC1` (as salt: hydrochloride) [Example 10, Cyclohexanecarboxylic Acid {(1R)-1-Cyclohexylmethyl-2-[4-(pyrimidin-2-yl)-piperazin-1-yl]-ethyl}-amide] is higher in melting point: 112 to 114 °C for the first, 121 to 123 °C for the second.

Compared with `COc1ccccc1N1CCN(C[C@@H](CC2CCCCC2)NC(=O)C2CCCCC2)CC1` (as salt: hydrochloride) [Example 1, Cyclohexanecarboxylic Acid {(1R)-1-Cyclohexylmethyl-2-[4-(2-methoxyphenyl)-piperazin-1-yl]-ethyl}-amide], `COc1ccccc1N1CCN(C[C@@H](CC2CCCCC2)N(C)C(=O)C2CCCCC2)CC1` (as salt: hydrochloride) [Example 3, Cyclohexanecarboxylic Acid {(1R)-1-Cyclohexylmethyl-2-[4-(2-methoxyphenyl)-piperazin-1-yl]-ethyl}-methyl-amide] is higher in melting point: 121 to 131 °C for the first, 222 to 224 °C for the second.

First: COc1ccccc1C1CCN(C[C@@H](CC2CCCCC2)NC(=O)C2(C)CCCCC2)CC1 (as salt: hydrochloride) (hydrate or solvate) [Example 16, 1-Methyl-cyclohexanecarboxylic acid {(1R)-1-cyclohexylmethyl-2-[4-(2-methoxyphenyl)-piperidin-1-yl]-ethyl}-amide]
Second: COc1ccccc1C1CCN(C[C@@H](CC2CCCCC2)N(C)C(=O)C2(C)CCCCC2)CC1 (as salt: hydrochloride) (hydrate or solvate) [Example 18, 1-Methyl-cyclohexanecarboxylic Acid {(1R)-1-Cyclohexylmethyl-2-[4-(2-methoxypheniyl)-piperidin-1-yl]-ethyl}-methyl-amide]
The melting point of the first is higher: 208 to 210 °C for the first, 169 to 171 °C for the second.

Compared with `COc1cccc(N2CCN(C[C@H](CC3CCCCC3)NC(=O)C3CCCCC3)CC2)n1` (as salt: hydrochloride) [Example 12, Cyclohexane Carboxylic Acid {(1S)-1-Cyclohexylmethyl-2-[4-(6methoxypyridin-2-yl)-piperazin-1-yl]-ethyl}-amide], `COc1ccccc1N1CCN(C[C@@H](CC2CCCCC2)NC=O)CC1` (as salt: hydrochloride) (hydrate or solvate) [Example 9, N-{(1R)-1-Cyclohexylmethyl-2-[4-(2-methoxyphenyl)-piperazin-1-yl]-ethyl}-formamide] is higher in melting point: 107 to 109 °C for the first, 157 to 159 °C for the second.

First: COc1ccccc1C1=CCN(C[C@@H](CC2CCCCC2)NC(=O)C2(C)CCCCC2)CC1 (as salt: hydrochloride) (hydrate or solvate) [Example 21, 1-Methyl-cyclohexanecarboxylic Acid {(1R)-1-Cyclohexylmethyl-2-[4-(2-methoxyphenyl)-3,6-dihydro-2H-pyridin-1-yl]-ethyl}-amide]
Second: CN(C(=O)C1(C)CCCCC1)[C@H](CC1CCCCC1)CN1CCN(c2cccc3[nH]ccc23)CC1 (as salt: hydrochloride) [Example 8]
The melting point of the first is lower: 93 to 95 °C for the first, 253 to 254 °C for the second.

`CN(C(=O)C1CCCCC1)[C@H](CC1CCCCC1)CN1CCN(c2cccc3[nH]ccc23)CC1` (as salt: hydrochloride) (hydrate or solvate) [Example 7, Cyclohexanecarboxylic Acid {(1R)-1-Cyclohexylmethyl-2-[4-(1H-indol-4-yl)-piperazin-1-yl]-ethyl}-methyl-amide] showed a melting point greater than 260 °C.
